Assay results from US20130012527A1, “PREQ1 RIBOSWITCHES AND METHODS AND COMPOSITIONS FOR USE OF AND WITH PREQ1 RIBOSWITCHES” (YALE UNIVERSITY, priority 2007, published 2013).
pKd: −log10 of the molar value.

Legend:
wild-type 80 queC RNA = test: In-line probing analysis of wild-type 80 queC RNA; assay type: binding, B. subtilis; conditions: for structure modulation: wild-type 80 queC, 200 μM
Description: This possibility was examined by comparing the ligand binding characteristics of a wild-type queC construct (80 queC) with those of two mutant RNAs in which absolutely conserved cytidine residues were individually replaced with uridines (FIG. 6a). 2,6-diaminopurine was included in the panel of test compounds since it was previously established that the 2-amino group was critical for ligand recognition by the preQ1 aptamer (FIG. 4c). It was therefore anticipated that compounds lacking this moiety, such as adenine or 7-aminomethyl-7-deazaadenine, might not bind detectably, despite their potential for base pairing with a uridyl discriminator residue.
(§1) In-line probing analysis. […] .

[1] = system: M1 RNA (80 queC, cytidine 34 replaced with uridine); test: In-line probing analysis of 80 queC mutant M1; assay type: binding, B. subtilis; conditions: for structure modulation: 200 μM
[2] = system: queC RNA construct containing the analogous C34U mutation; test: In-line probing of a queC RNA construct with the analogous C34U mutation; assay type: binding; conditions: concentrations as high as 1 mM
Description: as §1

106 queC RNA = test: Equilibrium dialysis, competition with 3H-guanine; assay type: binding, B. subtilis; conditions: 100 nM 3H-guanine, 20 μM RNA, unlabeled compound at a concentration exceeding that of the RNA
Description: To provide additional support for a specific physical interaction between preQ1 and the queC RNA motif, competitive binding experiments were done using an equilibrium dialysis apparatus containing two chambers separated by a permeable membrane with a molecular weight cut-off of 5000 Daltons (FIG. 4d). Because guanine is recognized by the queC motif with nanomolar affinity (FIG. 4c), we first added ^3H-guanine and a molar excess of 106 queC RNA individually to the respective chambers. […].
Samples containing either 100 nM ^3H-guanine or 20 μM 106 queC RNA, each prepared in the same buffer solution used for in-line probing, were added in 30 μL volumes to opposite chambers of a DispoEquilibrium Dialyzer (ED-1, Harvard Bioscience). Following equilibration at 25° C. for 10-15 h, aliquots of 5 μL were withdrawn and quantitated with a liquid scintillation counter. For competitive binding experiments, 3 μL of buffer containing 1 mM unlabeled test compound was subsequently delivered to the RNA-containing chamber, while the same volume of buffer was added to the opposite chamber. After another equilibration period, 5 μL aliquots were again removed to assess the distribution of ^3H-guanine.

[3] = biological target: 52 queC RNA (B. subtilis queC element); test: In-line probing analysis of 52 queC RNA; assay type: binding; conditions: in-line probing over a range of ligand concentrations, read-out: Kd (apparent)
Description: RNA construct 52 queC (FIG. 4a) was used to examine the degree of ligand selectivity of the B. subtilis queC element. Affinities for various purine compounds were determined by subjecting 5′ ^32P-labeled 52 queC to in-line probing analyses using a range of ligand concentrations, followed by the quantitative analysis of the levels of ligand-dependent structure modulation.
A more detailed understanding of the molecular contacts involved in ligand recognition by 52 queC was obtained by determining the apparent Kd values for a series of purine analogs (FIG. 4c).

| SMILES | structure modulation (wild-type 80 queC RNA) | structure modulation ([1]; M1 (C34U)) | competition with 3H-guanine sequestration in the RNA chamber (106 queC RNA) | pKd [3] | other results |
| --- | --- | --- | --- | --- | --- |
| Nc1nc(N)c2[nH]cnc2n1 [2,6-diaminopurine] | Structural changes in this construct are also induced | key changes are observed |  |  | pKd (wild-type 80 queC RNA; 80 queC): < 3.52; lowest concentration at which alterations in structure are detected (wild-type 80 queC RNA; 80 queC): 10 µM; relative loss in binding affinity ([1]; C34U mutant with 2,6-diaminopurine versus wild-type queC RNA with guanine): more than 600 fold; pKd ([1]; M1 (C34U), data not shown): < 3.52 |
| NCC1C=Nc2ncnc(N)c21 (stereo not shown) [7-aminomethyl-7-deazaadenine] |  |  |  |  | modulation of RNA structure [2]: fail to modulate the structure |
| Nc1nc2c(c(=O)[nH]1)CC=N2 [7-deazaguanine] |  |  | competitively reversed |  |  |
| Nc1ncnc2nc[nH]c12 [adenine] | does not result in structure modulation | failure of adenine to induce any conformational response | did not serve as a competitor |  | binding to M1 RNA ([1]; M1 (C34U), in words): absence of adenine binding |
| Nc1nc2nc[nH]c2c(=O)[nH]1 [guanine] | structure modulation occurs |  | competitively reversed | ~6.30 |  |
| N#CC1C=Nc2nc(N)[nH]c(=O)c21 (stereo not shown) [preQ0, 7-cyano-7-deazaguanine] |  |  |  | ~7.00 |  |
